From PubChem BioAssay AID1963970 (Molecular Pharmacology Branch, DTP, NCI, 2024)

System: 931267-113-T-J1-PDC multicell spheroid viability
Assay: Anticancer human tumor 931267-113-T-J1-PDC patient-derived colon adenocarcinoma cell line growth inhibition [PI3K]
Details: for IC50: curve of first compound; for viability, T/C: stronger effect = lower value
Outline: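 High-throughput combination screen: PI3K inhibitors crossed with targeted small molecules on complex spheroids of tumor cells, HUVEC and MSCs at 37 degrees C, 5% CO2. Top concentration was at or near clinical Cmax (otherwise 10 microM), with half-log decrements.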

[1] = second compound 0.00316 µM, first compound 0.0316 µM
[2] = second compound 0.00316 µM, first compound 0.1 µM
[3] = second compound 0.00316 µM, first compound 0.316 µM
[4] = second compound 0.00316 µM, first compound 1 µM
[5] = second compound 0.00316 µM, first compound 3.16 µM
[6] = second compound 0.00316 µM, first compound 10 µM
[7] = second compound 0.01 µM, first compound 0.0316 µM
[8] = second compound 0.01 µM, first compound 0.1 µM
[9] = second compound 0.01 µM, first compound 0.316 µM
[10] = second compound 0.01 µM, first compound 1 µM
[11] = second compound 0.01 µM, first compound 3.16 µM
[12] = second compound 0.01 µM, first compound 10 µM
[13] = second compound 0.0316 µM, first compound 0.0316 µM
[14] = second compound 0.0316 µM, first compound 0.1 µM
[15] = second compound 0.0316 µM, first compound 0.316 µM
[16] = second compound 0.0316 µM, first compound 1 µM
[17] = second compound 0.0316 µM, first compound 3.16 µM
[18] = second compound 0.0316 µM, first compound 10 µM
[19] = second compound 0.1 µM, first compound 0.0316 µM
[20] = second compound 0.1 µM, first compound 0.1 µM
[21] = second compound 0.1 µM, first compound 0.316 µM
[22] = second compound 0.1 µM, first compound 1 µM
[23] = second compound 0.1 µM, first compound 3.16 µM
[24] = second compound 0.1 µM, first compound 10 µM
[25] = second compound 0.316 µM, first compound 0.0316 µM
[26] = second compound 0.316 µM, first compound 0.1 µM
[27] = second compound 0.316 µM, first compound 0.316 µM
[28] = second compound 0.316 µM, first compound 1 µM
[29] = second compound 0.316 µM, first compound 3.16 µM
[30] = second compound 0.316 µM, first compound 10 µM
[31] = second compound 1 µM, first compound 0.0316 µM
[32] = second compound 1 µM, first compound 0.1 µM
[33] = second compound 1 µM, first compound 0.316 µM
[34] = second compound 1 µM, first compound 1 µM
[35] = second compound 1 µM, first compound 3.16 µM
[36] = second compound 1 µM, first compound 10 µM
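Note: viability read 7 days after compound addition.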

Cn1nccc1Nc1nccc(-c2ccn(C(CO)c3ccc(Cl)c(F)c3)c(=O)c2)n1 (stereo not drawn) + COc1c(OCCCN2CCOCC2)ccc2c3n(c(=NC(=O)c4cnc(N)nc4)nc12)CCN3
IC50 (second compound 0.00316 µM): 3810 nM | IC50 (second compound 0.01 µM): 2740 nM | IC50 (second compound 0.0316 µM): 1220 nM | IC50 (second compound 0.1 µM): 413 nM | IC50 (second compound 0.316 µM): < 31.6 nM | IC50 (second compound 1 µM): < 31.6 nM | viability, T/C [1]: 94.7% | viability, T/C [2]: 82.3% | viability, T/C [3]: 83.2% | viability, T/C [4]: 77.4% | viability, T/C [5]: 52.2% | viability, T/C [6]: 32.1% | viability, T/C [7]: 97.6% | viability, T/C [8]: 98% | viability, T/C [9]: 79.2% | viability, T/C [10]: 67.5% | viability, T/C [11]: 48.5% | viability, T/C [12]: 22.4% | viability, T/C [13]: 79.7% | viability, T/C [14]: 77% | viability, T/C [15]: 68% | viability, T/C [16]: 55.6% | viability, T/C [17]: 30.6% | viability, T/C [18]: 16.1% | viability, T/C [19]: 70% | viability, T/C [20]: 67.4% | viability, T/C [21]: 52.4% | viability, T/C [22]: 37.4% | viability, T/C [23]: 21.9% | viability, T/C [24]: 10.3% | viability, T/C [25]: 42.7% | viability, T/C [26]: 40.2% | viability, T/C [27]: 35% | viability, T/C [28]: 23.7% | viability, T/C [29]: 13.8% | viability, T/C [30]: 6.64% | viability, T/C [31]: 32.7% | viability, T/C [32]: 29.6% | viability, T/C [33]: 27.3% | viability, T/C [34]: 18.4% | viability, T/C [35]: 9.42% | viability, T/C [36]: 5.13%

CCCS(=O)(=O)Nc1ccc(F)c(C(=O)c2c[nH]c3ncc(-c4ccc(Cl)cc4)cc23)c1F + COc1c(OCCCN2CCOCC2)ccc2c3n(c(=NC(=O)c4cnc(N)nc4)nc12)CCN3
IC50 (second compound 0.00316 µM): 6300 nM | IC50 (second compound 0.01 µM): 5980 nM | IC50 (second compound 0.0316 µM): 5830 nM | IC50 (second compound 0.1 µM): 4990 nM | IC50 (second compound 0.316 µM): 3660 nM | IC50 (second compound 1 µM): < 31.6 nM | viability, T/C [1]: 111% | viability, T/C [2]: 116% | viability, T/C [3]: 104% | viability, T/C [4]: 125% | viability, T/C [5]: 127% | viability, T/C [6]: 5.18% | viability, T/C [7]: 102% | viability, T/C [8]: 101% | viability, T/C [9]: 108% | viability, T/C [10]: 109% | viability, T/C [11]: 110% | viability, T/C [12]: 5.04% | viability, T/C [13]: 87.8% | viability, T/C [14]: 92.2% | viability, T/C [15]: 93.3% | viability, T/C [16]: 111% | viability, T/C [17]: 101% | viability, T/C [18]: 8.61% | viability, T/C [19]: 75.4% | viability, T/C [20]: 68.6% | viability, T/C [21]: 77.2% | viability, T/C [22]: 85.2% | viability, T/C [23]: 77.6% | viability, T/C [24]: 9.09% | viability, T/C [25]: 55.8% | viability, T/C [26]: 51.3% | viability, T/C [27]: 59.2% | viability, T/C [28]: 56.7% | viability, T/C [29]: 57.2% | viability, T/C [30]: 8.55% | viability, T/C [31]: 36.3% | viability, T/C [32]: 39.5% | viability, T/C [33]: 36.3% | viability, T/C [34]: 41.4% | viability, T/C [35]: 39.7% | viability, T/C [36]: 10.2%

C[C@@H](NC(=O)c1ncnc(N)c1Cl)c1ncc(C(=O)Nc2cc(C(F)(F)F)c(Cl)cn2)s1 + Cc1nc(NC(=O)N2CCCC2C(N)=O)sc1-c1ccnc(C(C)(C)C(F)(F)F)c1
IC50 (second compound 0.0316 µM): > 10000 nM | IC50 (second compound 0.1 µM): > 10000 nM | IC50 (second compound 0.316 µM): > 10000 nM | IC50 (second compound 1 µM): 9870 nM | IC50 (second compound 3.16 µM): 5350 nM | IC50 (second compound 10 µM): 1390 nM | viability, T/C [13]: 110% | viability, T/C [14]: 106% | viability, T/C [15]: 110% | viability, T/C [16]: 116% | viability, T/C [17]: 97.5% | viability, T/C [18]: 82.8% | viability, T/C [19]: 103% | viability, T/C [20]: 107% | viability, T/C [21]: 113% | viability, T/C [22]: 111% | viability, T/C [23]: 88.7% | viability, T/C [24]: 72.5% | viability, T/C [25]: 106% | viability, T/C [26]: 96.4% | viability, T/C [27]: 106% | viability, T/C [28]: 95.7% | viability, T/C [29]: 74.6% | viability, T/C [30]: 57.5% | viability, T/C [31]: 93.7% | viability, T/C [32]: 93.2% | viability, T/C [33]: 99.2% | viability, T/C [34]: 81.1% | viability, T/C [35]: 71.2% | viability, T/C [36]: 49.5% | viability, T/C (second compound 3.16 µM, first compound 0.0316 µM): 83.6% | viability, T/C (second compound 3.16 µM, first compound 0.1 µM): 91.8% | viability, T/C (second compound 3.16 µM, first compound 0.316 µM): 83.3% | viability, T/C (second compound 3.16 µM, first compound 1 µM): 79.8% | viability, T/C (second compound 3.16 µM, first compound 3.16 µM): 62.6% | viability, T/C (second compound 3.16 µM, first compound 10 µM): 35% | viability, T/C (second compound 10 µM, first compound 0.0316 µM): 72.2% | viability, T/C (second compound 10 µM, first compound 0.1 µM): 63.3% | viability, T/C (second compound 10 µM, first compound 0.316 µM): 63.8% | viability, T/C (second compound 10 µM, first compound 1 µM): 52% | viability, T/C (second compound 10 µM, first compound 3.16 µM): 41.9% | viability, T/C (second compound 10 µM, first compound 10 µM): 16.9%

CC(C)n1nc(-c2ccc3oc(N)nc3c2)c2c(N)ncnc21 + COc1c(OCCCN2CCOCC2)ccc2c3n(c(=NC(=O)c4cnc(N)nc4)nc12)CCN3
IC50 (second compound 0.00316 µM): 93.1 nM | IC50 (second compound 0.01 µM): 91.6 nM | IC50 (second compound 0.0316 µM): 68.5 nM | IC50 (second compound 0.1 µM): 31.2 nM | IC50 (second compound 0.316 µM): 1.49 nM | IC50 (second compound 1 µM): < 0.316 nM | viability, T/C (second compound 0.00316 µM, first compound 0.000316 µM): 90.4% | viability, T/C (second compound 0.00316 µM, first compound 0.001 µM): 97.9% | viability, T/C (second compound 0.00316 µM, first compound 0.00316 µM): 94.1% | viability, T/C (second compound 0.00316 µM, first compound 0.01 µM): 96% | viability, T/C [1]: 88.6% | viability, T/C [2]: 47.3% | viability, T/C (second compound 0.01 µM, first compound 0.000316 µM): 96.2% | viability, T/C (second compound 0.01 µM, first compound 0.001 µM): 90.2% | viability, T/C (second compound 0.01 µM, first compound 0.00316 µM): 88.1% | viability, T/C (second compound 0.01 µM, first compound 0.01 µM): 82.3% | viability, T/C [7]: 75.4% | viability, T/C [8]: 47.2% | viability, T/C (second compound 0.0316 µM, first compound 0.000316 µM): 90.5% | viability, T/C (second compound 0.0316 µM, first compound 0.001 µM): 82.1% | viability, T/C (second compound 0.0316 µM, first compound 0.00316 µM): 80.5% | viability, T/C (second compound 0.0316 µM, first compound 0.01 µM): 72.4% | viability, T/C [13]: 60.3% | viability, T/C [14]: 44.6% | viability, T/C (second compound 0.1 µM, first compound 0.000316 µM): 76.5% | viability, T/C (second compound 0.1 µM, first compound 0.001 µM): 66% | viability, T/C (second compound 0.1 µM, first compound 0.00316 µM): 64.4% | viability, T/C (second compound 0.1 µM, first compound 0.01 µM): 60.9% | viability, T/C [19]: 51.8% | viability, T/C [20]: 34.5% | viability, T/C (second compound 0.316 µM, first compound 0.000316 µM): 55.5% | viability, T/C (second compound 0.316 µM, first compound 0.001 µM): 50.8% | viability, T/C (second compound 0.316 µM, first compound 0.00316 µM): 46.3% | viability, T/C (second compound 0.316 µM, first compound 0.01 µM): 43.1% | viability, T/C [25]: 36% | viability, T/C [26]: 29% | viability, T/C (second compound 1 µM, first compound 0.000316 µM): 37.1% | viability, T/C (second compound 1 µM, first compound 0.001 µM): 35.8% | viability, T/C (second compound 1 µM, first compound 0.00316 µM): 35.3% | viability, T/C (second compound 1 µM, first compound 0.01 µM): 32.1% | viability, T/C [31]: 27.5% | viability, T/C [32]: 22.2%
